Experimental data as given in patent US20250352554A1 (Neurelis, Inc., priority 2024, published 2025).
Read-outs that look alike come from different tables or passages of the source.

Conditions: saturated solution

Measured: Appearance

Cc1cc2c(s1)Nc1ccccc1N=C2N1CCN(C)CC1 [olanzapine, 2-methyl-4-(4-methyl-1-piperazinyl)-10H-thieno[2,3-b][1,5]benzodiazepine]
Clear amber solution: 20% Dimethylacetamide/80% PEG 200 | 40% Dimethylacetamide/60% PEG 200 | 100% PEG 200
